PMC12862769 (ACS infectious diseases, 2025)
In brackets after ≈: the same amount, converted by molar mass. Where two headings read alike, the source gives them in different places.

Legend:
E. faecalis NR-31971 = details: cited from earlier work
E. faecium NR-31954 = test: MIC assay; type: cell-based
E. faecalis NR-31970 = test: MIC assay; type: cell-based
E. faecium HM-965 = test: MIC assay; type: cell-based
E. faecium NR-32052 = details: cited from earlier work
E. faecium NR-32065 = details: cited from earlier work
E. faecium NR-31916 = details: cited from earlier work
E. hirae ATCC 10541 = test: MIC assay; type: cell-based
E. faecium HM-968 = details: cited from earlier work
E. gallinarum ATCC 49373 = test: MIC assay; type: cell-based
E. faecium HM-970 = test: MIC assay; type: cell-based
E. durans ATCC 11576 = test: MIC assay; type: cell-based
[1] = system: α-Carbonic anhydrase (Q3XYE8); details: lysates pre-incubated with 100 μM free inhibitor, compared to Biotin-AZM; α-CA
E. faecium NR-31909 [2] = test: E. faecium septicemic peritonitis mouse model; type: in vivo, BALB/c mice
[3] = system: all tested Enterococcus strains; test: MIC assay, all tested Enterococcus strains; type: cell-based
[4] = system: Listeria Monocytogenes ATCC 19111; test: MIC assay; type: cell-based; details: encodes only α-CA, no MpsAB homologs
E. faecalis NR-31972 = details: cited from earlier work
E. faecium NR-32094 = test: MIC assay; type: cell-based
E. faecalis HM-335 = details: cited from earlier work
E. faecium NR-31937 = test: MIC assay; type: cell-based
E. faecalis HM-201 = test: MIC assay; type: cell-based
E. faecium NR-31909 [5] = test: MIC assay; type: cell-based
E. faecium NR-31903 = details: cited from earlier work
E. faecium NR-28978 = details: cited from earlier work
[6] = system: E. faecalis and E. faecium strains; test: MIC assay, panel of 25 E. faecalis and E. faecium strains; type: cell-based; details: ambient air
E. faecalis HM-934 = test: MIC assay; type: cell-based
[7] = system: Staphylococcus aureus USA300; test: MIC assay; type: cell-based; details: no CAs, expresses MpsAB homologs
E. faecium NR-31933 = test: MIC assay; type: cell-based
E. faecium ATCC 700221 = test: MIC assay; type: cell-based
[8] = system: Staphylococcus epidermidis NRS101; test: MIC assay; type: cell-based; details: no CAs, expresses MpsAB homologs
E. faecium NR-32053 = test: MIC assay; type: cell-based
E. faecalis HM-334 = details: cited from earlier work
E. faecium HM-952 = test: MIC assay; type: cell-based
E. avium ATCC 14025 = test: MIC assay; type: cell-based
[9] = system: Bacillus subtilis ATCC11774; test: MIC assay; type: cell-based; details: encodes both MpsAB and CAs
E. faecium α-CA = test: in vitro inhibition of bacterial α-CA; type: biochemical
[10] = system: E. saccharolyticus ATCC 43076; test: MIC assay; type: cell-based
E. raffinosus ATCC 49464 = test: MIC assay; type: cell-based
E. faecium NR-31914 = details: cited from earlier work
E. faecium NR-31912 = test: MIC assay; type: cell-based
[11] = system: E. casseliflavus ATCC 700327; test: MIC assay; type: cell-based

CC(=O)Nc1nnc(S(N)(=O)=O)s1 [AZM, acetazolamide]
MIC (E. faecalis NR-31971; 5% CO2 atmosphere at 37° C): > 288 µM | MIC (E. faecalis NR-31971; ambient air at 37° C): 9.01 µM (≈ 2 µg/mL) | MIC (E. faecium NR-31954; 5% CO2 atmosphere at 37° C): > 288 µM | MIC (E. faecium NR-31954; ambient air at 37° C): 36.0 µM (≈ 8 µg/mL) | MIC (E. faecalis NR-31970; 5% CO2 atmosphere at 37° C): > 288 µM | MIC (E. faecalis NR-31970; ambient air at 37° C): 18.0 µM (≈ 4 µg/mL) | MIC (E. faecium HM-965; 5% CO2 atmosphere at 37° C): > 288 µM | MIC (E. faecium HM-965; ambient air at 37° C): 4.50 µM (≈ 1 µg/mL) | MIC (E. faecium NR-32052; 5% CO2 atmosphere at 37° C): > 288 µM | MIC (E. faecium NR-32052; ambient air at 37° C): 9.01 µM (≈ 2 µg/mL) | MIC (E. faecium NR-32065; 5% CO2 atmosphere at 37° C): > 288 µM | MIC (E. faecium NR-32065; ambient air at 37° C): 4.50 µM (≈ 1 µg/mL) | MIC (E. faecium NR-31916; 5% CO2 atmosphere at 37° C): > 288 µM | MIC (E. faecium NR-31916; ambient air at 37° C): 9.01 µM (≈ 2 µg/mL) | MIC (E. hirae ATCC 10541; 5% CO2 atmosphere at 37° C): > 288 µM | MIC (E. hirae ATCC 10541; ambient air at 37° C): 36.0 µM (≈ 8 µg/mL) | MIC (E. faecium HM-968; 5% CO2 atmosphere at 37° C): > 288 µM | MIC (E. faecium HM-968; ambient air at 37° C): 9.01 µM (≈ 2 µg/mL) | MIC (E. gallinarum ATCC 49373; 5% CO2 atmosphere at 37° C): > 288 µM | MIC (E. gallinarum ATCC 49373; ambient air at 37° C): 36.0 µM (≈ 8 µg/mL) | MIC (E. faecium HM-970; 5% CO2 atmosphere at 37° C): > 288 µM | MIC (E. faecium HM-970; ambient air at 37° C): 9.01 µM (≈ 2 µg/mL) | MIC (E. durans ATCC 11576; 5% CO2 atmosphere at 37° C): > 288 µM | MIC (E. durans ATCC 11576; ambient air at 37° C): 2.25 µM (≈ 0.5 µg/mL) | Log2 (FC) [1]: −7.88 | survival (mice rescued) (E. faecium NR-31909 [2]; 20 mg/kg PO once-daily for three days, n = 6/group): 66.7% | reduction of VRE bioburden compared to vehicle (E. faecium NR-31909 [2]; kidney, liver and spleen, each tissue, 20 mg/kg PO QD three days): at least 2 Log10 CFU/mL | reduction of VRE bioburden (E. faecium NR-31909 [2]; kidney, liver and spleen, three-day treatment): > 99% | MICs in the presence of CO2 ([3]; all Enterococcus species, 5% CO2): > 288 µM | All Enterococci spp. MIC50 ([3]; inhibited 50% of all tested Enterococcus strains, ambient air): 9.01 µM | All Enterococci spp. MIC90 ([3]; inhibited 90% of all tested Enterococcus strains, ambient air): 36.0 µM | MIC ([4]; 5% CO2 atmosphere at 37° C): >500 µM | MIC ([4]; ambient air at 37° C): 72 µM (≈ 16 µg/mL) | MIC (E. faecalis NR-31972; 5% CO2 atmosphere at 37° C): > 288 µM | MIC (E. faecalis NR-31972; ambient air at 37° C): 9.01 µM (≈ 2 µg/mL) | MIC (E. faecium NR-32094; 5% CO2 atmosphere at 37° C): > 288 µM | MIC (E. faecium NR-32094; ambient air at 37° C): 9.01 µM (≈ 2 µg/mL) | MIC (E. faecalis HM-335; 5% CO2 atmosphere at 37° C): > 288 µM | MIC (E. faecalis HM-335; ambient air at 37° C): 9.01 µM (≈ 2 µg/mL) | MIC (E. faecium NR-31937; 5% CO2 atmosphere at 37° C): > 288 µM | MIC (E. faecium NR-31937; ambient air at 37° C): 9.01 µM (≈ 2 µg/mL) | MIC (E. faecalis HM-201; 5% CO2 atmosphere at 37° C): > 288 µM | MIC (E. faecalis HM-201; ambient air at 37° C): 18.0 µM (≈ 4 µg/mL) | MIC (E. faecium NR-31909 [5]; 5% CO2 atmosphere at 37° C): > 288 µM | MIC (E. faecium NR-31909 [5]; ambient air at 37° C): 9.01 µM (≈ 2 µg/mL) | MIC (E. faecium NR-31903; 5% CO2 atmosphere at 37° C): > 288 µM | MIC (E. faecium NR-31903; ambient air at 37° C): 9.01 µM (≈ 2 µg/mL) | MIC (E. faecium NR-28978; 5% CO2 atmosphere at 37° C): > 288 µM | MIC (E. faecium NR-28978; ambient air at 37° C): 9.01 µM (≈ 2 µg/mL) | Ef MIC50 ([6]; inhibited 50% of the tested E. faecalis and E. faecium strains): 9.01 µM | Ef MIC90 ([6]; inhibited 90% of the tested E. faecalis and E. faecium strains): 18 µM | MIC (E. faecalis HM-934; 5% CO2 atmosphere at 37° C): > 288 µM | MIC (E. faecalis HM-934; ambient air at 37° C): 9.01 µM (≈ 2 µg/mL) | MIC ([7]; 5% CO2 atmosphere at 37° C): >500 µM | MIC ([7]; ambient air at 37° C): >500 µM | MIC (E. faecium NR-31933; 5% CO2 atmosphere at 37° C): > 288 µM | MIC (E. faecium NR-31933; ambient air at 37° C): 9.01 µM (≈ 2 µg/mL) | MIC (E. faecium ATCC 700221; 5% CO2 atmosphere at 37° C): > 288 µM | MIC (E. faecium ATCC 700221; ambient air at 37° C): 9.01 µM (≈ 2 µg/mL) | MIC ([8]; 5% CO2 atmosphere at 37° C): >500 µM | MIC ([8]; ambient air at 37° C): >500 µM | MIC (E. faecium NR-32053; 5% CO2 atmosphere at 37° C): > 288 µM | MIC (E. faecium NR-32053; ambient air at 37° C): 4.50 µM (≈ 1 µg/mL) | MIC (E. faecalis HM-334; 5% CO2 atmosphere at 37° C): > 288 µM | MIC (E. faecalis HM-334; ambient air at 37° C): 9.01 µM (≈ 2 µg/mL) | MIC (E. faecium HM-952; 5% CO2 atmosphere at 37° C): > 288 µM | MIC (E. faecium HM-952; ambient air at 37° C): 9.01 µM (≈ 2 µg/mL) | MIC (E. avium ATCC 14025; 5% CO2 atmosphere at 37° C): > 288 µM | MIC (E. avium ATCC 14025; ambient air at 37° C): 72.0 µM (≈ 16 µg/mL) | MIC ([9]; 5% CO2 atmosphere at 37° C): >500 µM | MIC ([9]; ambient air at 37° C): >500 µM | potency against α-CA over γ-CA based on Ki (E. faecium α-CA): > 5 fold | MIC ([10]; 5% CO2 atmosphere at 37° C): > 288 µM | MIC ([10]; ambient air at 37° C): 4.50 µM (≈ 1 µg/mL) | MIC (E. raffinosus ATCC 49464; 5% CO2 atmosphere at 37° C): > 288 µM | MIC (E. raffinosus ATCC 49464; ambient air at 37° C): 36.0 µM (≈ 8 µg/mL) | MIC (E. faecium NR-31914; 5% CO2 atmosphere at 37° C): > 288 µM | MIC (E. faecium NR-31914; ambient air at 37° C): 9.01 µM (≈ 2 µg/mL) | MIC (E. faecium NR-31912; 5% CO2 atmosphere at 37° C): > 288 µM | MIC (E. faecium NR-31912; ambient air at 37° C): 9.01 µM (≈ 2 µg/mL) | MIC ([11]; 5% CO2 atmosphere at 37° C): > 288 µM | MIC ([11]; ambient air at 37° C): 72.0 µM (≈ 16 µg/mL)
